Key:
[1] = Ionisation constant, pKa of the compound; type: physicochemical
Trypanosoma cruzi [2] = test: Antiparasitic activity against Trypanosoma cruzi MF epimastigotes after 7 days by nephelometry; type: functional, organism-based; settings: 168 h
[3] = Partition coefficient, log P of the compound; type: physicochemical; settings: octanol/water
Trypanosoma cruzi [4] = test: Inhibition of oxygen uptake in Trypanosoma cruzi MF epimastigotes at 300 uM by polarography; type: functional
[5] = Effective permeability by HPLC-based PAMPA; type: ADME; settings: read-out: permeability
[6] = Effective permeability by UV-based PAMPA; type: ADME; settings: read-out: permeability
[7] = Ionisation constant, pKa corresponding to acid proton of […] benzimidazole ring; type: physicochemical
[8] = Ionisation constant, pKa corresponding to weak base of […] benzimidazole ring; type: physicochemical

Row | pKa [1] | IC50 (Trypanosoma cruzi [2]) [µM] | logP [3] | Papp [5] [×10⁻⁶ cm/s] | Papp [6] [×10⁻⁶ cm/s] | pKa [7] | pKa [8] | Compound | inhibition at 300 µM (Trypanosoma cruzi [4]) [%]
1 | 4.9 | 94 | 3.1 | – | – | – | – | O=C(c1ccccc1)n1c(-c2ccccc2[N+](=O)[O-])nc2ccccc21 | 20
2 | – | 117 | 2.2 | 8 | 12 | 11.4 | 5.69 | O=[N+]([O-])c1ccccc1-c1nc2ccccc2[nH]1 | 40
3 | 4.69 | 78 | 3.6 | – | – | – | – | O=C(c1ccc(Cl)cc1)n1c(-c2ccccc2[N+](=O)[O-])nc2ccccc21 | –
4 | 4.71 | 64 | 3.2 | – | – | – | – | COc1ccc(C(=O)n2c(-c3ccccc3[N+](=O)[O-])nc3ccccc32)cc1 | –
5 | 4.79 | 80 | 2.8 | – | – | – | – | O=C(c1ccc([N+](=O)[O-])cc1)n1c(-c2ccccc2[N+](=O)[O-])nc2ccccc21 | –

Reference: ChEMBL document CHEMBL1156548, “Determination and characterization of new benzimidazoles with activity against Trypanosoma cruzi by UV spectroscopy and HPLC” (Bioorg Med Chem, 2008)
